Data set [1] has as its target T1, cloned human 5HT1A receptors (Homo sapiens, UniProt P08908).
T1 construct: expressed in transfected cells
T1 sequence (P08908 1-422): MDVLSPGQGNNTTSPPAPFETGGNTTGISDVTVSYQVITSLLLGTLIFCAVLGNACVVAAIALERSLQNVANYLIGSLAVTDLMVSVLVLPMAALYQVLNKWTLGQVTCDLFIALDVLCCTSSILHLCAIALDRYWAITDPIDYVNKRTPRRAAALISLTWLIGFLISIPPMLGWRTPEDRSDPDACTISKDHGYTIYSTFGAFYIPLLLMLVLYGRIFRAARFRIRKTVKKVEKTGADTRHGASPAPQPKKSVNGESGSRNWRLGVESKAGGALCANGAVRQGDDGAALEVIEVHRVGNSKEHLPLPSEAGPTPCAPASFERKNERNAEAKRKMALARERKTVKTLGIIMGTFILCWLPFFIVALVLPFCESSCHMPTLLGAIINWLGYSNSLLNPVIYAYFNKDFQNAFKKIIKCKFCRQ
Briefly: 35S-GTPγS binding assay, membranes containing cloned human 5HT1A receptors. In kind it is biochemical. Conditions: for IC50: antagonist potency, reversal of the effects of the standard agonist 8-OHDPAT, read-out: 5-HT1A Function IC50; for Emax: maximum inhibitory effect, read-out: 5-HT1A Function (Imax). Put shortly:
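Antagonism measured as the test compound's reversal of 8-OHDPAT-stimulated [35S]GTPγS binding to membranes bearing cloned human receptor; agonists would instead raise binding. Imax gives the maximal inhibitory effect, IC50 the potency.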
For orientation: GTPγS is a poorly hydrolysed GTP analogue; its binding reports G protein activation.

The target in the next data set is T2, human 5-HT1A receptors (Homo sapiens, UniProt P08908).
T2 construct: expressed in transfected cells; host or cells: CHO cells
T2 sequence (P08908 1-422): T1 sequence (P08908 1-422)
Briefly: Displacement of [3H] 8-OHDPAT from 5-HT1A receptor, CHO cells stably transfected with human 5-HT1A receptors. In kind it is binding. Conditions: CHO cells with human 5-HT1A receptors, read-out: 5-HT1A Receptor Affinity KI. From the text:
High affinity for the serotonin 5-HT1A receptor was established by testing the claimed compound's ability to displace [^3H] 8-OHDPAT (dipropylaminotetralin) from the 5-HT1A serotonin receptor following a modification of the procedure of Hall et al., J. Neurochem. 44, 1685 (1985) which utilizes CHO cells stably transfected with human 5-HT1A receptors.

The target of another data set is T3, serotonin transporter (Rattus norvegicus, UniProt P31652).
T3 construct: displace ^3H-paroxetine from male rat frontal cortical membranes; from tissue; host or cells: male rat frontal cortex membranes
T3 sequence (P31652 whole entry): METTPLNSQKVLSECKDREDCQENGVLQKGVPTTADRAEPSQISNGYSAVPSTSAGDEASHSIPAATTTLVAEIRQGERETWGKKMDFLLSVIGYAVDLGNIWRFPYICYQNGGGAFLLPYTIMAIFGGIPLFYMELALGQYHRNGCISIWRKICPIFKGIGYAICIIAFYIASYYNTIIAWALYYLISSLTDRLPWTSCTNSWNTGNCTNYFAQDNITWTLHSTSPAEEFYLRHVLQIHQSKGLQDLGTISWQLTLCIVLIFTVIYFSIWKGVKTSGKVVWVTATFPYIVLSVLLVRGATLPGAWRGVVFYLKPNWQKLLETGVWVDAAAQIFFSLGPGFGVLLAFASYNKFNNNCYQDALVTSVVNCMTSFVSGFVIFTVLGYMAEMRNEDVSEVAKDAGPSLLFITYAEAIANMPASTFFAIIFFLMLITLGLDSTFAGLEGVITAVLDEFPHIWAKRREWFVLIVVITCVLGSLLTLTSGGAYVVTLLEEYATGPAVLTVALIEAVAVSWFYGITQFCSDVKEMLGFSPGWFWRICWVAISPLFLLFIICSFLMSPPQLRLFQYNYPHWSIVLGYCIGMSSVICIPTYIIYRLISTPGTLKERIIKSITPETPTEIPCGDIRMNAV
Briefly: Displacement of 3H-paroxetine from male rat frontal cortical membranes (serotonin transporter affinity). In kind it is binding. Conditions: read-out: 5-HT Transporter Affinity KI. (Loss of bound radioactivity is the signal in a displacement assay; it reports binding, not function.)

Structures can show the parent of a compound that is named as a salt.

As for `Cc1ccc2c3c(ccc2n1)OCC(CNCCCc1c[nH]c2ccc(C#N)cc12)O3` (centres unmarked) (as salt: hydrochloride) [Example 29, 3-{3-[(8-Methyl-2,3-dihydro-[1,4]dioxino[2,3-f]quinolin-2-ylmethyl)-amino]-propyl}-1H-indole-5-carbonitrile], the melting point fell in the range of 170 to 174 °C.
With `Cc1ccc2c3c(ccc2n1)OCC(CNCCCn1ccc2c(F)cccc21)O3` (centres unmarked) (as salt: hydrochloride) [Example 46, [3-(4-Fluoro-indol-1-yl)-propyl]-(8-methyl-2,3-dihydro-[1,4]dioxino[2,3-f]quinolin-2-ylmethyl)-amine], the melting point lay within 203 to 206 °C.
With `Cc1ccc2c3c(ccc2n1)OCC(CNCCCc1cn(C)c2ccc(F)cc12)O3` (centres unmarked) (as salt: fumarate) [Example 12, N-[3-(5-Fluoro-1-methyl-1H-indol-3-yl)propyl]-N-(8-methyl-2,3-dihydro-[1,4]dioxino[2,3-f]quinolin-2-ylmethyl)amine], the melting point was 156 to 161 °C.
For the compound `Cc1ccc2c3c(ccc2n1)OCC(CNCCCCc1c[nH]c2ccc(F)cc12)O3` (centres unmarked) (as salt: fumarate) [Example 10, N-[4-(5-Fluoro-1H-indol-3-yl)butyl]-N-(8-methyl-2,3-dihydro-[1,4]dioxino[2,3-f]quinolin-2-ylmethyl)amine], the melting point fell in the range of 138 to 154 °C.
Turning to `Cc1nc2ccc3c(c2o1)OC(CN(C)CCCc1c[nH]c2ccc(F)cc12)CO3` (centres unmarked) (as salt: hydrochloride) [Example 24, N-[3-(5-Fluoro-1H-indol-3-yl)propyl]-N-methyl-N-(2-methyl-7,8-dihydro[1,4]dioxino[2,3-g][1,3]benzoxazol-8-ylmethyl)amine], the melting point was 136 to 139 °C.
For `Cc1ccc2c3c(ccc2n1)OCC(CNCCCc1c[nH]c2c(F)cc(F)cc12)O3` (centres unmarked) (as salt: fumarate) [Example 13, N-[3-(5,7-Difluoro-1H-indol-3-yl)propyl]-N-(8-methyl-2,3-dihydro-[1,4]dioxino[2,3-f]quinolin-2-ylmethyl)amine], the melting point lay in the range of 188 to 195 °C.
In turn, `Cc1ccc2c3c(ccc2n1)OCC(CN(C)CCCn1ccc2ccc(F)cc21)O3` (centres unmarked) (as salt: hydrochloride) [Example 34, [3-(6-Fluoro-indol-1-yl)-propyl]-methyl-(8-methyl-2,3-dihydro-[1,4]dioxino[2,3-f]quinolin-2-ylmethyl)-amine] had a melting point of 75.9 to 83.7 °C.
The same measure, in the same setting: the figure for `Cc1ccc2c3c(ccc2n1)OC[C@H](CNCCCc1c[nH]c2ccc(F)cc12)O3` (as salt: fumarate) [Example 3, N-[3-(5-Fluoro-1H-Indolyl-3-yl)propyl]-N-(8-methyl-2,3-dihydro-[1,4]dioxino[2,3-f]quinolin-2-ylmethyl)amine] is 207 to 209 °C; for `CCN(CCCc1c[nH]c2ccc(F)cc12)CC1COc2ccc3nc(C)ccc3c2O1` (centres unmarked) (as salt: hydrochloride) [Example 25, N-Ethyl-N-[3-(5-Fluoro-1H-indol-3-yl)propyl]-N-(8-methyl-2,3-dihydro-[1,4]dioxino[2,3-f]quinolin-2-ylmethyl)amine] it is 158 to 175 °C.
For `Cc1ccc2c3c(ccc2n1)OC[C@H](CNCCc1coc2ccccc12)O3` (as salt: fumarate) [Example 17], the melting point lay in the range of 210 to 214 °C.
In the case of `Cc1ccc2c3c(ccc2n1)OC[C@H](CNCCCc1cn(C)c2ccc(C#N)cc12)O3` [Example 37, 1-Methyl-3-{3-[(8-methyl-2,3-dihydro-[1,4]dioxino[2,3-f]quinolin-2-ylmethyl)-amino]-proyl}-1H-indole-5-carbonitrile], in data set [1], the IC50 came to 21.4 nM and the Emax amounted to 100%. Moreover, the Ki at human 5-HT1A receptors was 1.12 nM. The Ki at serotonin transporter turned out to be 2.6 nM.
Regarding `Cc1ccc2c3c(ccc2n1)OC[C@H](CNCCCc1csc2ccc(F)cc12)O3` [Example 51, N-[3-(5-Fluoro-1-benzothien-3-yl)propyl]-N-{[(2S)-8-methyl-2,3-dihydro[1,4]dioxino[2,3-f]quinolin-2-yl]methyl}amine], in data set [1], the IC50 is 19 nM and the Emax stood at 82%. In addition, the Ki on human 5-HT1A receptors is 0.78 nM. Moreover, at serotonin transporter, the Ki worked out at 2.35 nM.
In the case of `COc1ccc2[nH]cc(CCNCC3COc4ccc5nc(C)ccc5c4O3)c2c1` (centres unmarked) [Example 1], in data set [1], the IC50 was found to be 88.6 nM and the Emax came to 80.3%. For the same compound, the Ki on human 5-HT1A receptors is 2.03 nM. Besides, on serotonin transporter, the Ki worked out at 31 nM.
As for `Cc1ccc2c3c(ccc2n1)OCC(CNCCCCc1c[nH]c2ccc(F)cc12)O3` (centres unmarked) [Example 10, N-[4-(5-Fluoro-1H-indol-3-yl)butyl]-N-(8-methyl-2,3-dihydro-[1,4]dioxino[2,3-f]quinolin-2-ylmethyl)amine], in data set [1], the IC50 amounted to 71.1 nM and the Emax amounted to 61.5%. The Ki on human 5-HT1A receptors was 1.78 nM. For the same compound, the Ki on serotonin transporter came to 1.29 nM.
Turning to `Cc1ccc2c3c(ccc2n1)OCC(CNCCCc1c[nH]c2c(F)cccc12)O3` (centres unmarked) [Example 8, N-[3-(7-Fluoro-1H-indol-3-yl)propyl]-N-(8-methyl-2,3-dihydro-[1,4]dioxino[2,3-f]quinolin-2-ylmethyl)amine], in data set [1], the IC50 was 25.8 nM and the Emax came out at 94.1%. Also, at human 5-HT1A receptors, the Ki is 0.22 nM. For the same compound, the Ki on serotonin transporter stood at 2.07 nM.
As for `Cc1ccc2c3c(ccc2n1)OC[C@H](CNCCc1c[nH]c2ccc(Cl)cc12)O3` [Example 2], in data set [1], the IC50 was 49.4 nM and the Emax was 37%. For the same compound, on human 5-HT1A receptors, the Ki turned out to be 19.9 nM. Further, the inhibition constant (Ki) at serotonin transporter is 34 nM.
Take `Cc1nc2ccc3c(c2o1)O[C@@H](CNCCCc1c[nH]c2ccc(C#N)cc12)CO3` [Example 30, 3-{3-[(2-Methyl-7,8-dihydro-[1,4]dioxino[2,3-g][1,3]benzoxazol-8-ylmethyl)amino]-propyl}-1H-indole-5-carbanitrile]: in data set [1], the IC50 was found to be 68 nM and the Emax amounted to 73.1%. In addition, on human 5-HT1A receptors, the Ki was determined as 5.35 nM. Moreover, the Ki at serotonin transporter was determined as 1.8 nM.
For `Cc1ccc2c3c(ccc2n1)OCC(CN(C)CCCn1ccc2ccc(F)cc21)O3` (centres unmarked) [Example 34, [3-(6-Fluoro-indol-1-yl)-propyl]-methyl-(8-methyl-2,3-dihydro-[1,4]dioxino[2,3-f]quinolin-2-ylmethyl)-amine], in data set [1], the IC50 is 193 nM and the Emax was 100%. In addition, on human 5-HT1A receptors, the Ki came out at 0.29 nM. On serotonin transporter, the inhibitory constant (Ki) was determined as 8.1 nM.
As for `Cc1ccc2c3c(ccc2n1)OC[C@H](CNCCCCc1c[nH]c2ccc(C#N)cc12)O3` [Example 39, 3-{4-[(8-Methyl-2,3-dihydro-[1,4]dioxino[2,3-f]quinolin-2-ylmthyl)-amino]-butyl}-1H-indole-5-carbonitrile], the IC50 in data set [1] was found to be 263 nM. The Emax in data set [1] came to 78.5%. The Ki at human 5-HT1A receptors amounted to 0.85 nM; on serotonin transporter, 0.5 nM.
In the case of `Cc1ccc2c3c(ccc2n1)OCC(CNCCc1c[nH]c2ccc(F)cc12)O3` (centres unmarked) [Example 4, N-[2-(5-Fluoro-1H-indol-3-yl)ethyl]-N-(8-methyl-2,3-dihydro-[1,4]dioxino[2,3-f]quinolin-2-ylmethyl)amine], in data set [1], the IC50 is 909 nM and the Emax is 58%. In addition, on human 5-HT1A receptors, the Ki is 4.19 nM. Further, the Ki on serotonin transporter amounted to 47 nM.

The term melting point denotes the temperature, or range, at which the solid turns liquid. The IC50 is the concentration that inhibits the measured activity by half. As a reminder, the Ki is a measure of affinity in units of concentration, obtained from inhibition or displacement.

The values above are taken from patent US6800637B2, “Antidepressant indolealkyl derivatives of heterocycle-fused benzodioxan methylamines” (Wyeth, priority 2002, dated 2004).
